Consider 15 molecules from patent US8680339B2, “Herbicides” (Syngenta Limited, priority 2009, dated 2014).

Format in all cases: in vivo
In test [1] the test system is Lolium perenne (LOLPE). The test can be described thus: Post-emergence herbicidal activity, glasshouse pot test. Particulars: rate 250 g/ha, evaluated after 13 days, 100=total damage to plant, 0=no damage to plant; for pest or weed control at 250 g/ha: Lolium perenne, 312 h. As for the experimental part:
(§1) Seeds of a variety of test species were sown in standard soil in pots. After cultivation for one day (pre-emergence) or after 8 days cultivation (post-emergence) under controlled conditions in a glasshouse (at 24/16° C., day/night; 14 hours light; 65% humidity), the plants were sprayed with an aqueous spray solution derived from the formulation of the technical active ingredient in acetone/water (50:50) solution containing 0.5% Tween 20 (polyoxyethelyene sorbitan monolaurate, CAS RN 9005-64-5). The test plants were then grown in a glasshouse under controlled conditions in a glasshouse (at 24/16° C., day/night; 14 hours light; 65% humidity) and watered twice daily. After 13 days for pre and post-emergence, the test was evaluated (100=total damage to plant; 0=no damage to plant). Test Plants: Lolium perenne (LOLPE), Alopecurus myosuroides (ALOMY), Echinochloa crus-galli (ECHCG), and Avena fatua (AVEFA). Post-Emergence Activity

Test [2] has as its system Echinochloa crus-galli (ECHCG). Described as above. Particulars: rate 250 g/ha, evaluated after 13 days, 100=total damage to plant, 0=no damage to plant; for pest or weed control at 250 g/ha: Echinochloa crus-galli, 312 h. On the procedure:
as §1

Test [3] relates to Alopecurus myosuroides (ALOMY). The description is as above. Particulars: rate 250 g/ha, evaluated after 13 days, 100=total damage to plant, 0=no damage to plant; for pest or weed control at 250 g/ha: Alopecurus myosuroides, 312 h. On the procedure: as §1
In test [4] the test system is Avena fatua (AVEFA). The description is as above. As to conditions: rate 250 g/ha, evaluated after 13 days, 100=total damage to plant, 0=no damage to plant; for pest or weed control at 250 g/ha: Avena fatua, 312 h. On the procedure:
as §1

Test [5] deals with Lolium perenne (LOLPE). The test can be described thus: Pre-emergence herbicidal activity, glasshouse pot test. Particulars: rate 250 g/ha, evaluated after 13 days, 100=total damage to plant, 0=no damage to plant; for pest or weed control at 250 g/ha: Lolium perenne, 312 h. On the procedure: as §1, with “Pre-Emergence” for “Post-Emergence”
In test [6] the test system is Echinochloa crus-galli (ECHCG). The description is as above. As to conditions: rate 250 g/ha, evaluated after 13 days, 100=total damage to plant, 0=no damage to plant; for pest or weed control at 250 g/ha: Echinochloa crus-galli, 312 h. On the procedure: as §1, with “Pre-Emergence” for “Post-Emergence”
The subject of test [7] is Alopecurus myosuroides (ALOMY). The description is as above. As to conditions: rate 250 g/ha, evaluated after 13 days, 100=total damage to plant, 0=no damage to plant; for pest or weed control at 250 g/ha: Alopecurus myosuroides, 312 h. On the procedure: as §1, with “Pre-Emergence” for “Post-Emergence”
Test [8] deals with Avena fatua (AVEFA). The test is described as above. As to conditions: rate 250 g/ha, evaluated after 13 days, 100=total damage to plant, 0=no damage to plant; for pest or weed control at 250 g/ha: Avena fatua, 312 h. As for the experimental part: as §1, with “Pre-Emergence” for “Post-Emergence”

In general, pest or weed control refers to how far the test organism was held down. A higher pest or weed control goes with a strong effect. `Cc1cc(Oc2cnc3cc(Cl)ccc3n2)cc(C)c1C1=C(O)C2C(C1=O)[C@H]1CC[C@@H]2CC1` (stereo partly drawn) [Compound A-21]: the pest or weed control at 250 g/ha worked out at 0% in the test with Lolium perenne (LOLPE) [1]; 70% in test [2]; 10% in test [3]; 0% in the test on Avena fatua (AVEFA) [4]; 30% with Lolium perenne (LOLPE) [5]; 50% in test [6]. In addition, the pest or weed control at 250 g/ha in test [7] is 10%; in the test on Avena fatua (AVEFA) [8], 0%.
As to `Cc1cc(Oc2ccc(Cl)cc2F)cc(C)c1C1=C(O)[C@H]2[C@@H](C1=O)[C@@H]1CC[C@H]2O1` [Compound A-7], the pest or weed control at 250 g/ha in the test on Lolium perenne (LOLPE) [1] was found to be 100%; in test [2], 100%; in test [3], 100%; with Avena fatua (AVEFA) [4], 90%; with Lolium perenne (LOLPE) [5], 90%; in test [6], 100%. The pest or weed control at 250 g/ha stood at 70% in test [7] and 90% in the test on Avena fatua (AVEFA) [8].
Consider `Cc1cc(Oc2ccc3cc(Cl)ccc3n2)cc(C)c1C1=C(O)CC(CC2CCOCC2)C1=O` (stereo not drawn) [Compound A-37, 2-[4-(6-chloroquinolin-2-yloxy)-2,6-dimethylphenyl]-4-(tetrahydropyran-4-ylmethyl)cyclopentane-1,3-dione], for which the pest or weed control at 250 g/ha with Lolium perenne (LOLPE) [1] turned out to be 40%; in test [2] it was 80%; in test [3], 50%; in the test on Avena fatua (AVEFA) [4] it was 60%; in the test with Lolium perenne (LOLPE) [5] it was 0%; in test [6], 90%. For the same molecule, the pest or weed control at 250 g/ha (in test [7]; with Avena fatua (AVEFA) [8]) was 10% in each case.
Take `Cc1cc(Br)ccc1Oc1cc(C)c(C2=C(O)[C@H]3[C@@H](C2=O)[C@@H]2CC[C@H]3O2)c(C)c1` [Compound A-13]: the pest or weed control at 250 g/ha stood at 60% with Lolium perenne (LOLPE) [1]; 50% in test [2]; 80% in test [3]; 30% with Avena fatua (AVEFA) [4]; 60% with Lolium perenne (LOLPE) [5]; 70% in test [6]. Besides, the pest or weed control at 250 g/ha in test [7] amounted to 60%; in the test with Avena fatua (AVEFA) [8] it was 0%.
Take `Cc1cc(Oc2cnc3cc(Cl)ccc3n2)cc(C)c1C1=C(O)[C@H]2[C@@H](C1=O)[C@@H]1CC[C@H]2O1` [Compound A-23]: the figures for the “damage to plant LOLPE” value with Lolium perenne (LOLPE) [1] and in the test with Lolium perenne (LOLPE) [5] were 50 and 90, respectively. Moreover, the “damage to plant ECHCG” value in test [2] is 70; in test [6] it was 90. The “damage to plant ALOMY” value in test [3] worked out at 60; in test [7] it was 30. The “damage to plant AVEFA” value in the test on Avena fatua (AVEFA) [4] is given as 80; in the test with Avena fatua (AVEFA) [8], 20.
On to `CCc1cc(Oc2ccc3cc(Cl)ccc3n2)ccc1C1=C(O)[C@H]2[C@@H](C1=O)[C@@H]1CC[C@H]2O1` [Compound A-38], for which the pest or weed control at 250 g/ha in the test with Lolium perenne (LOLPE) [1] turned out to be 80%; in test [2] it was 100%; in test [3] it was 90%; in the test with Avena fatua (AVEFA) [4], 80%; in the test on Lolium perenne (LOLPE) [5] it was 70%; in test [6], 100%. In addition, the pest or weed control at 250 g/ha in test [7] was 80%; in the test on Avena fatua (AVEFA) [8], 0%.
Regarding `Cc1cc(Oc2ccc(Cl)cc2)cc(C)c1C1=C(OC(=O)C(C)(C)C)[C@H]2[C@@H](C1=O)[C@@H]1CC[C@H]2O1` [Compound P-3], the pest or weed control at 250 g/ha in the test with Lolium perenne (LOLPE) [1] was found to be 100%; in test [2], 100%; in test [3] it was 90%; in the test with Avena fatua (AVEFA) [4], 100%; with Lolium perenne (LOLPE) [5] it was 90%; in test [6], 100%. For the same molecule, the pest or weed control at 250 g/ha was 100% in test [7] and 90% with Avena fatua (AVEFA) [8].
Consider `Cc1cc(Oc2ncc(Cl)cc2F)cc(C)c1C1=C(O)[C@H]2[C@@H](C1=O)[C@@H]1CC[C@H]2O1` [Compound A-25], for which the “damage to plant LOLPE” value in the test on Lolium perenne (LOLPE) [1] and with Lolium perenne (LOLPE) [5] was 80 each time. Moreover, the “damage to plant ECHCG” value in test [2] and in test [6] was 70 in each case. Besides, the “damage to plant ALOMY” value in test [3] is reported as 90; in test [7] it was 40. Further, the “damage to plant AVEFA” value amounted to 70 with Avena fatua (AVEFA) [4] and 30 in the test on Avena fatua (AVEFA) [8].
With `Cc1cc(Oc2ccc(F)cc2)cc(C)c1C1=C(OC(=O)C(C)(C)C)[C@H]2[C@@H](C1=O)[C@@H]1CC[C@H]2O1` [Compound P-4], the pest or weed control at 250 g/ha with Lolium perenne (LOLPE) [1] was 70%; in test [2] it was 90%; in test [3], 90%; in the test on Avena fatua (AVEFA) [4], 60%; in the test with Lolium perenne (LOLPE) [5], 90%; in test [6] it was 100%. In addition, the pest or weed control at 250 g/ha turned out to be 80% in test [7] and 70% in the test with Avena fatua (AVEFA) [8].
With `Cc1cc(Oc2ncc(Cl)cc2Cl)cc(C)c1C1=C(O)[C@H]2[C@@H](C1=O)[C@@H]1CC[C@H]2O1` [Compound A-26], the pest or weed control at 250 g/ha with Lolium perenne (LOLPE) [1] was 100%; in test [2] it was 90%; in test [3], 100%; in the test with Avena fatua (AVEFA) [4], 70%; in the test on Lolium perenne (LOLPE) [5], 100%; in test [6] it was 100%. Besides, the pest or weed control at 250 g/ha in test [7] amounted to 90%; with Avena fatua (AVEFA) [8], 60%.
For `Cc1cc(Oc2ccccc2Cl)cc(C)c1C1=C(O)[C@H]2[C@@H](C1=O)[C@@H]1CC[C@H]2O1` [Compound A-10], the pest or weed control at 250 g/ha in the test with Lolium perenne (LOLPE) [1] was 30%; in test [2], 40%; in test [3], 10%; in the test on Avena fatua (AVEFA) [4] it was 0%; with Lolium perenne (LOLPE) [5], 20%; in test [6] it was 10%. For the same molecule, the values for the pest or weed control at 250 g/ha (in test [7]; with Avena fatua (AVEFA) [8]) were 10% and 0%, respectively.
Consider `Cc1cc(Oc2cnc3cc(Cl)ccc3n2)cc(C)c1C1=C(O)[C@H]2[C@H]3CC[C@H](C3)[C@H]2C1=O` [Compound A-16], for which the pest or weed control at 250 g/ha in the test with Lolium perenne (LOLPE) [1] was 0%; in test [2] it was 60%; in test [3], 30%; in the test with Avena fatua (AVEFA) [4], 0%; in the test on Lolium perenne (LOLPE) [5], 0%; in test [6], 10%. Besides, the pest or weed control at 250 g/ha (in test [7]; in the test on Avena fatua (AVEFA) [8]) was 0% throughout.
For the molecule `Cc1cc(Oc2ccc(Cl)cc2)cc(C)c1C1=C(O)[C@H]2[C@@H](C1=O)[C@@H]1CC[C@H]2O1` [Compound A-4], the pest or weed control at 250 g/ha in the test on Lolium perenne (LOLPE) [1] was 100%; in test [2], 100%; in test [3], 100%; in the test with Avena fatua (AVEFA) [4] it was 90%; in the test on Lolium perenne (LOLPE) [5] it was 80%; in test [6], 90%. Moreover, the values for the pest or weed control at 250 g/ha (in test [7]; in the test with Avena fatua (AVEFA) [8]) were 100% and 70%, respectively.
`Cc1cc(Oc2cc(F)ccc2F)cc(C)c1C1=C(O)[C@H]2[C@@H](C1=O)[C@@H]1CC[C@H]2O1` [Compound A-9]: the pest or weed control at 250 g/ha in the test with Lolium perenne (LOLPE) [1] worked out at 60%; in test [2], 90%; in test [3] it was 60%; in the test with Avena fatua (AVEFA) [4], 40%; with Lolium perenne (LOLPE) [5], 60%; in test [6], 50%. The pest or weed control at 250 g/ha in test [7] came out at 20%; with Avena fatua (AVEFA) [8] it was 0%.
With `CCc1cc(Oc2ccc3cc(Cl)ccc3n2)ccc1C1=C(O)CCC1=O` [Compound A-35], the pest or weed control at 250 g/ha in the test on Lolium perenne (LOLPE) [1] amounted to 20%; in test [2] it was 80%; in test [3] it was 0%; with Avena fatua (AVEFA) [4] it was 0%; in the test on Lolium perenne (LOLPE) [5] it was 0%; in test [6] it was 70%. Also, the pest or weed control at 250 g/ha (in test [7]; in the test on Avena fatua (AVEFA) [8]) was 0% throughout.
